According to ChEMBL document CHEMBL4665802, “Design, Synthesis, and Structure-Activity Relationships of Indoline-Based Kelch-like ECH-Associated Protein 1-Nuclear Factor (Erythroid-Derived 2)-Like 2 (Keap1-Nrf2) Protein-Protein Interaction Inhibitors” (J Med Chem, 2020):
Activity calls are given as the source filed them. The rule behind the calls is not given here.

Columns and labels:
Mus musculus [1] = assay: Antioxidant activity against LPS-induced injury in C57BL/6 mouse assessed as increase in GSH/GSSG ratio at 10 mg/kg, ip qd administered for 3 days prior to LPS stimulation and measured after 12 hrs; type: functional, organism-based; conditions: dose mg/kg 10-40, time 3.5 day
[2] = Metabolic stability in human liver microsome assessed as half-life at 1 uM preincubated for 5 mins followed by NADPH addition and measured after 45 mins by LC-MS/MS analysis; type: ADME; conditions: liver microsomes
CYP2C9 = CYP2C9 (Homo sapiens, UniProt P11712); assay: Inhibition of CYP2C9 (unknown origin) at 10 uM using […] as substrate preincubated for 5 mins followed by NADPH addition and measured after 20 mins by LC-MS/MS analysis relative to control; type: ADME
Sequence of CYP2C9 (P11712 whole entry): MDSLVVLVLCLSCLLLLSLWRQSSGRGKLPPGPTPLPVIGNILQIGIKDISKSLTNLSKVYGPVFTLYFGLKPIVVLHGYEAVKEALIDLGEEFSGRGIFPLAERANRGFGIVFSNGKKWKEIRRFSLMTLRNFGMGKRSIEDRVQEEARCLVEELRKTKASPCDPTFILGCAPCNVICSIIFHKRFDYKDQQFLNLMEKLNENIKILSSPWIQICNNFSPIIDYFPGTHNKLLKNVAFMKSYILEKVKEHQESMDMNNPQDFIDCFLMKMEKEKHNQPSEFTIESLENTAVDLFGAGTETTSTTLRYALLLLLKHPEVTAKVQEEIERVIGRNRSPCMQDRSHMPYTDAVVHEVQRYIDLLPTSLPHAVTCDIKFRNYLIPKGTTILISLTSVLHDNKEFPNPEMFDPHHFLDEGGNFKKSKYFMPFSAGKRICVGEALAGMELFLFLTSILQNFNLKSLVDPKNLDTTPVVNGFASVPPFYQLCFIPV

[3] = Cmax in rat at 5 mg/kg, iv by LC-MS/MS analysis; type: ADME, organism-based; set-up: route intravenous, dose 5 mg/kg; conditions: in vivo
[4] = AUC (0 to infinity) in rat at 5 mg/kg, iv by LC-MS/MS analysis; type: ADME, organism-based; set-up: time infinity, route intravenous, dose 5 mg/kg; conditions: in vivo
[5] = Half-life in rat at 5 mg/kg, iv by LC-MS/MS analysis; type: ADME, organism-based; conditions: in vivo
[6] = Apparent volume of distribution in rat at 5 mg/kg, iv by LC-MS/MS analysis; type: ADME, organism-based; conditions: in vivo, read-out: Vz
H9c2 [7] = assay: Upregulation of Nrf2 mRNA expression in rat H9c2 cells incubated for 12 hrs by Trizol reagent based qRT-PCR analysis; type: functional, cell-based; conditions: dose microM 0.1-10, time 12.0 hrs
[8] = molecular target: T1, KEAP1/NRF2 (Rattus norvegicus) (UniProt O54968+P57790); assay: Inhibition of Keap1-Nrf2 protein-protein interaction in rat H9c2 cells assessed as upregulation of NQO1 mRNA expression incubated for 12 hrs by Trizol reagent based qRT-PCR analysis; type: cell-based; conditions: dose microM 0.1-10, time 12.0 hrs
[9] = molecular target: T1, KEAP1/NRF2 (Rattus norvegicus); assay: Inhibition of Keap1-Nrf2 protein-protein interaction in rat H9c2 cells assessed as upregulation of GCLM mRNA expression incubated for 12 hrs by Trizol reagent based qRT-PCR analysis; type: cell-based; conditions: dose microM 0.1-10, time 12.0 hrs
[10] = molecular target: T1, KEAP1/NRF2 (Rattus norvegicus); assay: Inhibition of Keap1-Nrf2 protein-protein interaction in rat H9c2 cells assessed as upregulation of GCLM expression incubated for 12 hrs by Western blot analysis; type: cell-based; conditions: dose microM 0.1-10, time 12.0 hrs
H9c2 [11] = assay: Cytotoxicity against rat H9c2 cells assessed as reduction in cell viability up to 100 uM incubated for 24 hrs by MTT assay; type: cell-based; conditions: h9c2, 24 h
H9c2 [12] = assay: Cytoprotective activity against LPS-induced sepsis in rat H9c2 cells assessed as increase in cell viability pretreated with compound for 12 hrs followed by LPS addition measured after 12 hrs by MTT assay; type: functional, cell-based; conditions: dose microM 0.1-10, time 24.0 hrs
H9c2 [13] = assay: Antiinflammatory activity against LPS-induced sepsis in rat H9c2 cells assessed as decrease in secretion of TNF-alpha at 1 to 10 uM pretreated for 12 hrs followed by LPS addition measured after 12 hrs by sandwich ELISA; type: functional, cell-based; conditions: dose microM 1-10, time 24.0 hrs
H9c2 [14] = assay: Antiinflammatory activity against LPS-induced sepsis in rat H9c2 cells assessed as decrease in secretion of IL-1beta at 1 to 10 uM pretreated for 12 hrs followed by LPS addition measured after 12 hrs by sandwich ELISA; type: functional, cell-based; conditions: dose microM 1-10, time 24.0 hrs
Mus musculus [15] = assay: Cardioprotective activity in LPS-stimulated sepsis in C57BL/6 mouse assessed as reduction in heart tissue damage at 10 mg/kg, ip qd administered for 3 days prior to LPS stimulation and measured after 12 hrs by hematoxylin and eosin staining based microscopy; type: functional, organism-based; conditions: time 3.5 day
Mus musculus [16] = assay: Cardioprotective activity in LPS-stimulated sepsis in C57BL/6 mouse assessed as reduction in histological score at 10 mg/kg, ip qd administered for 3 days prior to LPS stimulation and measured after 12 hrs by hematoxylin and eosin staining based microscopy; type: functional, organism-based; conditions: time 3.5 day
Mus musculus [17] = assay: Antiinflammatory activity in LPS-stimulated sepsis in C57BL/6 mouse assessed as decrease in IL-1beta levels at 10 mg/kg, ip qd administered for 3 days prior to LPS stimulation and measured after 12 hrs by ELISA; type: functional, organism-based; conditions: time 3.5 day
Mus musculus [18] = assay: Antiinflammatory activity in LPS-stimulated sepsis in C57BL/6 mouse assessed as decrease in IL-6 levels at 10 mg/kg, ip qd administered for 3 days prior to LPS stimulation and measured after 12 hrs by ELISA; type: functional, organism-based; conditions: time 3.5 day
Mus musculus [19] = assay: Upregulation of HO1 expression in LPS-stimulated C57BL/6 mouse model of sepsis at 10 to 40 mg/kg, ip qd administered for 3 days prior to LPS stimulation and measured after 12 hrs by Western blot analysis; type: functional, organism-based; conditions: dose mg/kg 10-40, time 3.5 day
[20] = molecular target: T1, KEAP1/NRF2 (Rattus norvegicus); assay: Inhibition of Keap1-Nrf2 protein-protein interaction in rat H9c2 cells assessed as upregulation of HO1 mRNA expression at 10 uM incubated for 4 to 24 hrs by Trizol reagent based qRT-PCR analysis; type: cell-based; conditions: time hrs 4-24
[21] = molecular target: T1, KEAP1/NRF2 (Rattus norvegicus); assay: Inhibition of Keap1-Nrf2 protein-protein interaction in rat H9c2 cells assessed as upregulation of NQO1 mRNA expression at 10 uM incubated for 4 to 24 hrs by Trizol reagent based qRT-PCR analysis; type: cell-based; conditions: time hrs 4-24
[22] = molecular target: T1, KEAP1/NRF2 (Rattus norvegicus); assay: Inhibition of Keap1-Nrf2 protein-protein interaction in rat H9c2 cells assessed as upregulation of GCLM mRNA expression at 10 uM incubated for 4 to 24 hrs by Trizol reagent based qRT-PCR analysis; type: cell-based; conditions: time hrs 4-24
H9c2 [23] = assay: Upregulation of Nrf2 protein levels in rat H9c2 cells at 10 uM incubated up to 24 hrs by Western blot; type: functional, cell-based; conditions: time hrs <=24
[24] = molecular target: T1, KEAP1/NRF2 (Rattus norvegicus); assay: Inhibition of Keap1-Nrf2 protein-protein interaction in rat H9c2 cells assessed as upregulation of GCLM expression at 10 uM incubated up to 24 hrs by Western blot; type: cell-based; conditions: time hrs <=24

## COc1ccc(S(=O)(=O)NC(=O)CN(c2cccc3c2CCN3C(C(=O)NS(=O)(=O)c2ccc(C)cc2OC)c2cccc(OC)c2)S(=O)(=O)c2ccc(OC)cc2)cc1 (stereo not given)
Mus musculus [1]
  Activity: Active
[2]
  half-life at 1 µM: 2.52 h
CYP2C9
  inhibition at 20 min, 10 µM: 30.3%
[3]
  Cmax: 78.2 µg/mL
[4]
  AUC(0-inf): 47 µg·h/mL
[5]
  half-life: 4.02 h
[6]
  Vd: 0.64 L/kg
H9c2 [7]
  Activity: Dose-dependent effect
[8]
  inhibition: Dose-dependent effect
[9]
  inhibition: Dose-dependent effect
[10]
  inhibition: Dose-dependent effect
H9c2 [11]
  Activity: Non-Toxic
H9c2 [12]
  Activity: Dose-dependent effect
H9c2 [13]
  Activity: Active
H9c2 [14]
  Activity: Active
Mus musculus [15]
  Activity: Active
Mus musculus [16]
  Activity: Active
Mus musculus [17]
  Activity: Active
Mus musculus [18]
  Activity: Active
Mus musculus [19]
  Activity: Active
[20]
  inhibition: Active
[21]
  inhibition: Active
[22]
  inhibition: Active
H9c2 [23]
  Activity: Active
[24]
  inhibition: Active
